Inhibition data for 15 molecules are collected here from patent US9387200B2, “Isothiazole-pyridine derivatives as modulators of HIF (hypoxia inducible factor) activity” (FibroGen, Inc., priority 2008, dated 2016).

Molecules are shown by their SMILES.

For the first experiment, the target named is T1, HIF-PH2 (Homo sapiens, UniProt Q9GZT9).
T1 construct: made in house; host or cells: insect Hi5 cells
T1 sequence (Q9GZT9 whole entry, species assumed): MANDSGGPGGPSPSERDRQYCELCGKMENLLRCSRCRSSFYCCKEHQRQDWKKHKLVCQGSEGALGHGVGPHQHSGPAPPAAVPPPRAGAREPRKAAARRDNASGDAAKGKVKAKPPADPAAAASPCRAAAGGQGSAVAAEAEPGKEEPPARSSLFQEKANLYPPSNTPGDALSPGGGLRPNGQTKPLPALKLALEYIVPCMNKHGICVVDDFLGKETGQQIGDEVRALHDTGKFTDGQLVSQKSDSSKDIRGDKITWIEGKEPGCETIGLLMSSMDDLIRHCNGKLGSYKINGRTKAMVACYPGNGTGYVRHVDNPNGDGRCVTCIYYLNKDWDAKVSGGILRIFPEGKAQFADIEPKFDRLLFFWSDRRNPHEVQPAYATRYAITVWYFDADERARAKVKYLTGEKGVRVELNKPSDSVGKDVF
The experiment in a line: HIF-PH assay (14CO2 capture, peptide-dependent turnover). In kind it is biochemical. The following applies: compound concentration 22.22 μM. An excerpt:
Ketoglutaric acid α-[1-^14C]-sodium salt, alpha-ketoglutaric acid sodium salt, and HPLC purified peptide may be obtained from commercial sources, e.g., Perkin-Elmer (Wellesley Mass.), Sigma-Aldrich, and SynPep Corp. (Dublin Calif.), respectively. Peptides for use in the assay may be fragments of HIFα as described above or as disclosed in International Publication WO 2005/118836, incorporated by reference herein. For example, a HIF peptide for use in the HIF-PH assay is [methoxycoumarin]-DLDLEALAPYIPADDDFQL-amide. HIF-PH, e.g., HIF-PH2 (EGLN1), can be expressed in, e.g., insect Hi5 cells, and partially purified, e.g., through a SP ion exchange chromatography column. Enzyme activity is determined by capturing ^14CO2 using an assay described by Kivirikko and Myllyla (1982, Methods Enzymol. 82:245-304). Assay reactions contain 50 mM HEPES (pH 7.4), 100 μM α-ketoglutaric acid sodium salt, 0.30 μCi/mL ketoglutaric acid α-[1-^14C]-sodium salt, 40 μM FeSO4, 1 mM ascorbate, 1541.8 units/mL Catalase, with or without 50 μM peptide substrate and various concentrations of compound of the invention. Reactions are initiated by addition of HIF-PH enzyme.
The peptide-dependent percent turnover is calculated by subtracting percent turnover in the absence of peptide from percent turnover in the presence of substrate peptide. Percent inhibition and IC50 are calculated using peptide-dependent percent turnover at given inhibitor concentrations. Calculation of IC50 values for each inhibitor is conducted using GraFit software (Erithacus Software Ltd., Surrey UK).
Representative compounds of the invention were analyzed using the HIF-PH assay described above. Table I below presents enzyme inhibition data for exemplary compounds against HIF-PH2, a representative HIF prolyl hydroxylase enzyme. By inhibiting HIF prolyl hydroxylase enzymes, compounds of the invention stabilize HIFα, which then combines with HIFβ to form an active transcription factor that increases expression of various genes involved in numerous beneficial cellular processes.
`Cc1nsc2c(O)c(C(=O)NCC(=O)O)nc(-c3ccccc3)c12` [Example 31, [(7-Hydroxy-3-methyl-4-phenyl-isothiazolo[4,5-c]pyridine-6-carbonyl)-amino]-acetic acid] registered an inhibition at 22.22 µM of 98%.
The same measure, in the same setting: to `Cc1nsc2c(-c3cnccn3)nc(C(=O)NCC(=O)O)c(O)c12` [Example 40, [(4-Hydroxy-3-methyl-7-pyrazin-2-yl-isothiazolo[5,4-c]pyridine-5-carbonyl)-amino]-acetic acid] belongs 70%.

Staying with this experiment, now noted: compound concentration 200 μM.
Consider `O=C(O)CNC(=O)c1nc(C(F)(F)F)c2snc(-c3ccc(Cl)cc3)c2c1O` [Example 26, {[3-(4-Chloro-phenyl)-4-hydroxy-7-trifluoromethyl-isothiazolo[5,4-c]pyridine-5-carbonyl]-amino}-acetic acid], for which at 200 µM the inhibition was 100%.
The same measure, in the same setting: for `O=C(O)CNC(=O)c1nc(Br)c2c(-c3ccccc3)nsc2c1O` [Example 27, [(4-Bromo-7-hydroxy-3-phenyl-isothiazolo[4,5-c]pyridine-6-carbonyl)-amino]-acetic acid] the value was 98%.
Still for that read-out and setting: for `Cc1nc(C(=O)NCC(=O)O)c(O)c2c(C)nsc12` [Example 28, [(4-Hydroxy-3,7-dimethyl-isothiazolo[5,4-c]pyridine-5-carbonyl)-amino]-acetic acid] the value was 100%; for `Cc1nsc2c(O)c(C(=O)NCC(=O)O)nc(C)c12` [Example 29, [(7-Hydroxy-3,4-dimethyl-isothiazolo[4,5-c]pyridine-6-carbonyl)-amino]-acetic acid], 100%.
On the same count and under the same terms, to `Cc1nsc2c(-c3ccccc3)nc(C(=O)NCC(=O)O)c(O)c12` [Example 30, [(4-Hydroxy-3-methyl-7-phenyl-isothiazolo[5,4-c]pyridine-5-carbonyl)-amino]-acetic acid] belongs 100%; to `Cc1nsc2c(O)c(C(=O)NCC(=O)O)ncc12` [Example 32, [(7-Hydroxy-3-methyl-isothiazolo[4,5-c]pyridine-6-carbonyl)-amino]-acetic acid], 100%; to `O=C(O)CNC(=O)c1ncc2snc(-c3ccccc3F)c2c1O` [Example 33, {[3-(2-Fluoro-phenyl)-4-hydroxy-isothiazolo[5,4-c]pyridine-5-carbonyl]-amino}-acetic acid], 100%.
For the molecule `O=C(O)CNC(=O)c1nc(-c2ccccc2)c2snc(-c3ccccc3F)c2c1O` [Example 34, {[3-(2-Fluoro-phenyl)-4-hydroxy-7-phenyl-isothiazolo[5,4-c]pyridine-5-carbonyl]-amino}-acetic acid], the inhibition at 200 µM turned out to be 100%.
On to `O=C(O)CNC(=O)c1nc(-c2ccc(Oc3ccccc3)cc2)c2snc(-c3ccccc3F)c2c1O` [Example 35, {[3-(2-Fluoro-phenyl)-4-hydroxy-7-(4-phenoxy-phenyl)-isothiazolo[5,4-c]pyridine-5-carbonyl]-amino}-acetic acid], for which the inhibition at 200 µM is 100%.
The same measure, in the same setting: for `Cc1nc(C(=O)NCC(=O)O)c(O)c2c(-c3ccccc3F)nsc12` [Example 36, {[3-(2-Fluoro-phenyl)-4-hydroxy-7-methyl-isothiazolo[5,4-c]pyridine-5-carbonyl]-amino}-acetic acid] the value was 100%; for `Cc1nsc2c(-c3cccnc3)nc(C(=O)NCC(=O)O)c(O)c12` [Example 37, [(4-Hydroxy-3-methyl-7-pyridin-3-yl-isothiazolo[5,4-c]pyridine-5-carbonyl)-amino]-acetic acid], 100%.
In turn, `Cc1nsc2c(-c3ccccn3)nc(C(=O)NCC(=O)O)c(O)c12` [Example 38, [(4-Hydroxy-3-methyl-7-pyridin-2-yl-isothiazolo[5,4-c]pyridine-5-carbonyl)-amino]-acetic acid] registered an inhibition at 200 µM of 74%.
The same measure, in the same setting: to `C#Cc1nc(C(=O)NCC(=O)O)c(O)c2c(C)nsc12` [Example 39, [(7-Ethynyl-4-hydroxy-3-methyl-isothiazolo[5,4-c]pyridine-5-carbonyl)-amino]-acetic acid] belongs 100%.

For orientation: inhibition means the percentage by which the read-out fell short of the control.
